# Test results as given in patent US20070172436A1 (priority 2006, published 2007).
# How the values were obtained:
# [1] = Solubilization of ascorbic acid in absolute ethanol at room temperature, with or without urea; settings: 2.00% urea, 95.50% ethanol, stirring about 16 hours
# Experimental: The solubilization process was conducted at room temperature.
# The mixture was kept at room temperature, while stirring until dissolved. Vitamin E acetate was added to the mixture. Vitamin E acetate was solubilized in the mixture.
# [2] = Solubilization of ascorbic acid in propylene glycol at room temperature, with or without urea; assay type: physicochemical; settings: 7.0% ascorbic acid, 5.0% urea, 88.0% propylene glycol, stirring about 16 hours
# Experimental: The solubilization process was carried out at room temperature.
# The two sets of experiments (EXAMPLE 5 and EXAMPLE 6) were carried out side by side for comparison.
# [3] = co-pending application Ser. No. 11/242,306; cited from earlier work
dissolution in absolute ethanol [1],dissolution in propylene glycol [2],SMILES,concentration of dissolved ascorbic acid in nonaqueous alcohol solvents with urea and/or urea derivatives [3]
completely dissolved,completely dissolved,"NC(N)=O [urea, Urea]",
,,"O=C1O[C@H]([C@@H](O)CO)C(O)=C1O [ascorbic acid, L-ascorbic acid]",≤ 28 % by weight
